From patent publication US20240208968A1, “ALPHA V BETA 6 AND ALPHA V BETA 1 INTEGRIN INHIBITORS AND USES THEREOF” (DiCE Molecules SV, Inc., priority 2021, published 2024) come the findings set out here.

Structures can show the parent of a compound that is named as a salt.

One assay concerns the target αvβ1 (Homo sapiens, UniProt P05556+P06756). Description: Solid Phase Integrin αvβ1 Assay. In kind it is binding. In short, it runs like this:
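Compound competes for αvβ1 binding to immobilized TGFb1-LAP (1 µg/mL coat) in Mn2+ (1 mM MnCl2), 2% BSA binding buffer over 90 min at room temperature, integrin added at 0.2 µg/mL. Read-out: streptavidin-HRP/TMB; IC50 from Levenberg-Marquardt four-parameter fit.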

The target in a further assay is αvβ6 (Homo sapiens, UniProt P06756+P18564). Description: Solid Phase Integrin αvβ6 Assay. The assay is classed as binding. In short, it runs like this: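 Inhibition of αvβ6 binding to immobilized recombinant TGFb1-LAP (1 μg/mL coating), 1 h at room temperature with 1 mM MnCl2 in BSA/TBST buffer, integrin diluted to 0.2 μg/mL before addition. Streptavidin-HRP/TMB read-out; four-parameter logistic fitting gave IC50.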
Sequence of αvβ6 (P06756 31-992 limits assumed): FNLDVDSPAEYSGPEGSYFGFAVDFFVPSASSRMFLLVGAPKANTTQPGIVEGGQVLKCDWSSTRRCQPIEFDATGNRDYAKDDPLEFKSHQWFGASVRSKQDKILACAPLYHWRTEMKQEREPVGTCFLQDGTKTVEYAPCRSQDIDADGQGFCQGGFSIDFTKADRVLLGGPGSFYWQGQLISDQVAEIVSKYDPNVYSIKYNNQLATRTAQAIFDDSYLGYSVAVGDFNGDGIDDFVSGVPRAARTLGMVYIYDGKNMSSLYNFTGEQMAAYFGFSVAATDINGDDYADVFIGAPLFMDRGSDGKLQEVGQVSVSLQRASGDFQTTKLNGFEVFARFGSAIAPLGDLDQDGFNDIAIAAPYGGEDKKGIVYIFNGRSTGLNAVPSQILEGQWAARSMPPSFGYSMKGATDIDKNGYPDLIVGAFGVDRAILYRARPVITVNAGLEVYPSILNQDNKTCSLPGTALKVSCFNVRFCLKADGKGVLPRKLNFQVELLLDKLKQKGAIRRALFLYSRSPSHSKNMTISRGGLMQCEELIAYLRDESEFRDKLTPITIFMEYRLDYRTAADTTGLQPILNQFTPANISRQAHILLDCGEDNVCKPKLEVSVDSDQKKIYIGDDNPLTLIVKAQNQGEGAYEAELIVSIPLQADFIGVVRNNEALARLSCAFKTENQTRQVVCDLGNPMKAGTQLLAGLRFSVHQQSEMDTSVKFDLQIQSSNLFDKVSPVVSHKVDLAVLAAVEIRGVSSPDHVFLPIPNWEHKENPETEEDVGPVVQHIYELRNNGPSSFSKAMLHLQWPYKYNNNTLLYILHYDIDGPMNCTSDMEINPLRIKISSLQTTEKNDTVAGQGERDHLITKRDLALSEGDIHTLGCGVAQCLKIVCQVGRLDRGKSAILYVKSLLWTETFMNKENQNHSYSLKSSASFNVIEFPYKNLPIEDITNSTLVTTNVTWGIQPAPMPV
Sequence of αvβ6 (P18564 22-707 limits assumed): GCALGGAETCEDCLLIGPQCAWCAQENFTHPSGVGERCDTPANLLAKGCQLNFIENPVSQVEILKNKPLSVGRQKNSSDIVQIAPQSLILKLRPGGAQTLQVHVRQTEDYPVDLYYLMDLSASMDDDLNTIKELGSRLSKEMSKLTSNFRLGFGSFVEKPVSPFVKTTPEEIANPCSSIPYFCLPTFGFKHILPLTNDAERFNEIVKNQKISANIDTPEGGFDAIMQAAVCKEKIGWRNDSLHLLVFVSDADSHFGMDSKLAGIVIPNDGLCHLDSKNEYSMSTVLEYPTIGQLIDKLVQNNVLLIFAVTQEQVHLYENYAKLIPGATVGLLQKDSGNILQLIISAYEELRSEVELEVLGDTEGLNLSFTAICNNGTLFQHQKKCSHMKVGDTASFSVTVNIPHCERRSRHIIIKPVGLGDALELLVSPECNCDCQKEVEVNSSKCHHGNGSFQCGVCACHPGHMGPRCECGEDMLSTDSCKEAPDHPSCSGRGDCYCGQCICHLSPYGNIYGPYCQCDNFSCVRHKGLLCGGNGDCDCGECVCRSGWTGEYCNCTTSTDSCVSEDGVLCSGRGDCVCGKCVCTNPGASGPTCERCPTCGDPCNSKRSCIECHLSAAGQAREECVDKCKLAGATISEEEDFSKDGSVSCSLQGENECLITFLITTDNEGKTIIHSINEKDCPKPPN

Sequence of αvβ1 (P06756 31-992 limits assumed): as the sequence (P06756 31-992 limits assumed) above
Sequence of αvβ1 (P05556 21-728 limits assumed): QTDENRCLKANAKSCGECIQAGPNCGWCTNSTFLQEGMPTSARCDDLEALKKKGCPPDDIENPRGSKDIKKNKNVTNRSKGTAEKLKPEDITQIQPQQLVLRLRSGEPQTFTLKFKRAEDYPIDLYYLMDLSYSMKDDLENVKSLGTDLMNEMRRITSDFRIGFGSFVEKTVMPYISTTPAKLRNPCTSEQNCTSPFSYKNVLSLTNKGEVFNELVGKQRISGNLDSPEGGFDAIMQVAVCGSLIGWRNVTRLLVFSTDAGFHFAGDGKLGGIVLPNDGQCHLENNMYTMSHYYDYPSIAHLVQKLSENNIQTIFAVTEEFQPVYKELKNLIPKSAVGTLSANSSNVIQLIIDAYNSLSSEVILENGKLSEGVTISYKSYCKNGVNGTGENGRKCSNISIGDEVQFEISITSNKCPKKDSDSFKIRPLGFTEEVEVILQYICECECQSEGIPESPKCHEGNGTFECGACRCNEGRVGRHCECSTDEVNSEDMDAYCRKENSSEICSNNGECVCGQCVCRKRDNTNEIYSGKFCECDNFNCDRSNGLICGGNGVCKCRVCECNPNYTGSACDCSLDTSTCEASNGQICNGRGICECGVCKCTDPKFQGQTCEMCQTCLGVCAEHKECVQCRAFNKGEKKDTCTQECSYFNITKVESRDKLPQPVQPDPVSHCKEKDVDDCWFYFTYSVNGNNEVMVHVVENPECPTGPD

As for `O=C(NC[C@H](C(=O)O)c1cccc(C(F)(F)F)c1)[C@@H]1CCCN(CCCc2ccc3c(n2)NCCC3)C1` [Compound 252-B, 3-((R)-1-(3-(5,6,7,8-tetrahydro-1,8-naphthyridin-2-yl)propyl)piperidine-3-carboxamido)-2-(3-(trifluoromethyl)phenyl)propanoic acid], the results for the IC50 against αvβ1 and against αvβ6 were more than 1000 nM and less than 100 nM, respectively.
The like results for `O=C(NC[C@H](C(=O)O)c1cccc2c1CCCC2)[C@@H]1CCCN(CCCc2ccc3c(n2)NCCC3)C1` [Compound 253-A, 3-((R)-1-(3-(5,6,7,8-tetrahydro-1,8-naphthyridin-2-yl)propyl)piperidine-3-carboxamido)-2-(5,6,7,8-tetrahydronaphthalen-1-yl)propanoic acid] were, in that order, less than 100 nM and less than 100 nM.
Regarding `O=C(NC[C@@H](C(=O)O)c1cccc2c1CCCC2)[C@@H]1CCCN(CCCc2ccc3c(n2)NCCC3)C1` [Compound 253-B, 3-((R)-1-(3-(5,6,7,8-tetrahydro-1,8-naphthyridin-2-yl)propyl)piperidine-3-carboxamido)-2-(5,6,7,8-tetrahydronaphthalen-1-yl)propanoic acid], the figures for the IC50 against αvβ1 and against αvβ6 were 100 to 1000 nM and more than 1000 nM, respectively.
For `O=C(NC[C@H](C(=O)O)c1ccc2c(c1)CCC2)[C@@H]1CCCN(CCCc2ccc3c(n2)NCCC3)C1` [Compound 254-A, 2-(2,3-dihydro-1H-inden-5-yl)-3-((R)-1-(3-(5,6,7,8-tetrahydro-1,8-naphthyridin-2-yl)propyl)piperidine-3-carboxamido)propanoic acid], the IC50 against αvβ1 is less than 100 nM; at αvβ6, 100 to 1000 nM.
For the compound `O=C(NC[C@@H](C(=O)O)c1ccc2c(c1)CCC2)[C@@H]1CCCN(CCCc2ccc3c(n2)NCCC3)C1` [Compound 254-B, 2-(2,3-dihydro-1H-inden-5-yl)-3-((R)-1-(3-(5,6,7,8-tetrahydro-1,8-naphthyridin-2-yl)propyl)piperidine-3-carboxamido)propanoic acid], the 50% inhibitory concentration (IC50) on αvβ1 and against αvβ6 was less than 100 nM throughout.
Regarding `O=C(O)C(CNC(=O)[C@@H]1CCCN(CCCc2ccc3c(n2)NCCC3)C1)c1cccc(Br)c1` (stereo partly drawn) [Compound 255, 2-(3-bromophenyl)-3-((R)-1-(3-(5,6,7,8-tetrahydro-1,8-naphthyridin-2-yl)propyl)piperidine-3-carboxamido)propanoic acid hydrochloride], the half-inhibitory concentration (IC50) against αvβ1 and at αvβ6 was less than 100 nM in each case.
In the case of `O=C(NC[C@@H](C(=O)O)c1cccc(-c2ccccc2)c1)[C@@H]1CCCN(CCCc2ccc3c(n2)NCCC3)C1` [Compound 256-A, 2-([1,1′-biphenyl]-3-yl)-3-((R)-1-(3-(5,6,7,8-tetrahydro-1,8-naphthyridin-2-yl)propyl)piperidine-3-carboxamido)propanoic acid], the IC50 at αvβ1 and against αvβ6 was 100 to 1000 nM throughout.
For the compound `O=C(NC[C@H](C(=O)O)c1cccc(-c2ccccc2)c1)[C@@H]1CCCN(CCCc2ccc3c(n2)NCCC3)C1` [Compound 256-B, 2-([1,1′-biphenyl]-3-yl)-3-((R)-1-(3-(5,6,7,8-tetrahydro-1,8-naphthyridin-2-yl)propyl)piperidine-3-carboxamido)propanoic acid], the IC50 against αvβ1 and against αvβ6 was less than 100 nM each time.
As to `Cc1cc(C)n(-c2cccc([C@H](CNC(=O)[C@@H]3CCCN(CCCc4ccc5c(n4)NCCC5)C3)C(=O)O)c2)n1` [Compound 257-A, 2-(3-(3,5-dimethyl-1H-pyrazol-1-yl)phenyl)-3-((R)-1-(3-(5,6,7,8-tetrahydro-1,8-naphthyridin-2-yl)propyl)piperidine-3-carboxamido)propanoic acid], the IC50 on αvβ1 and against αvβ6 was less than 100 nM in each case.
Consider `Cc1cc(C)n(-c2cccc([C@@H](CNC(=O)[C@@H]3CCCN(CCCc4ccc5c(n4)NCCC5)C3)C(=O)O)c2)n1` [Compound 257-B, 2-(3-(3,5-dimethyl-1H-pyrazol-1-yl)phenyl)-3-((R)-1-(3-(5,6,7,8-tetrahydro-1,8-naphthyridin-2-yl)propyl)piperidine-3-carboxamido)propanoic acid], for which the half-maximal inhibitory concentration (IC50) against αvβ1 and at αvβ6 was less than 100 nM in each case.
Turning to `O=C(NC[C@H](C(=O)O)c1cccc(C2CC2)c1)[C@@H]1CCCN(CCCc2ccc3c(n2)NCCC3)C1` [Compound 258-A, 2-(3-cyclopropylphenyl)-3-((R)-1-(3-(5,6,7,8-tetrahydro-1,8-naphthyridin-2-yl)propyl)piperidine-3-carboxamido)propanoic acid], the IC50 against αvβ1 and against αvβ6 was 100 to 1000 nM each time.
As for `O=C(NC[C@@H](C(=O)O)c1cccc(C2CC2)c1)[C@@H]1CCCN(CCCc2ccc3c(n2)NCCC3)C1` [Compound 258-B, 2-(3-cyclopropylphenyl)-3-((R)-1-(3-(5,6,7,8-tetrahydro-1,8-naphthyridin-2-yl)propyl)piperidine-3-carboxamido)propanoic acid], the concentration for half-maximal inhibition (IC50) on αvβ1 and against αvβ6 was less than 100 nM in each case.
`O=C(NC[C@H](C(=O)O)c1ccc(C2CC2)cc1)[C@@H]1CCCN(CCCc2ccc3c(n2)NCCC3)C1` [Compound 259-A, 2-(4-cyclopropylphenyl)-3-((R)-1-(3-(5,6,7,8-tetrahydro-1,8-naphthyridin-2-yl)propyl)piperidine-3-carboxamido)propanoic acid]: the IC50 against αvβ1 and on αvβ6 was less than 100 nM in each case.
`O=C(NC[C@H](C(=O)O)c1ccccc1C1CC1)[C@@H]1CCCN(CCCc2ccc3c(n2)NCCC3)C1` [Compound 260-A, 2-(2-cyclopropylphenyl)-3-((R)-1-(3-(5,6,7,8-tetrahydro-1,8-naphthyridin-2-yl)propyl)piperidine-3-carboxamido)propanoic acid]: the IC50 at αvβ1 and against αvβ6 was less than 100 nM in each case.
As to `O=C(NC[C@@H](C(=O)O)c1ccccc1C1CC1)[C@@H]1CCCN(CCCc2ccc3c(n2)NCCC3)C1` [Compound 260-B, 2-(2-cyclopropylphenyl)-3-((R)-1-(3-(5,6,7,8-tetrahydro-1,8-naphthyridin-2-yl)propyl)piperidine-3-carboxamido)propanoic acid], the values for the 50% inhibitory concentration (IC50) against αvβ1 and against αvβ6 were 100 to 1000 nM and more than 1000 nM, respectively.
On to `O=C(NC[C@H](Nc1cccc2ccccc12)C(=O)O)[C@@H]1CCCN(CCCc2ccc3c(n2)NCCC3)C1` [Compound 261, (S)-2-(naphthalen-1-ylamino)-3-((R)-1-(3-(5,6,7,8-tetrahydro-1,8-naphthyridin-2-yl)propyl)piperdine-3-carboxamido)propanoic acid], for which the IC50 against αvβ1 and against αvβ6 was less than 100 nM in each case.
For the compound `O=C(N[C@@H](CNC(=O)[C@@H]1CCCN(CCCc2ccc3c(n2)NCCC3)C1)C(=O)O)C1CCCCC1` [Compound 262, (S)-2-(cyclohexanecarboxamido)-3-((R)-1-(3-(5,6,7,8-tetrahydro-1,8-naphthyridin-2-yl)propyl)piperidine-3-carboxamido)propanoic acid hydrochloride], the IC50 against αvβ1 and at αvβ6 was less than 100 nM each time.
On to `CC1(C(=O)N[C@@H](CNC(=O)[C@@H]2CCCN(CCCc3ccc4c(n3)NCCC4)C2)C(=O)O)CCCCC1` [Compound 263, (S)-2-(1-methylcyclohexane-1-carboxamido)-3-((R)-1-(3-(5,6,7,8-tetrahydro-1,8-naphthyridin-2-yl)propyl)piperidine-3-carboxamido)propanoic acid hydrochloride], for which the IC50 against αvβ1 and at αvβ6 was less than 100 nM throughout.
In the case of `O=C(NC[C@H](NC(=O)[C@@H]1CCCC[C@H]1C(=O)N1CCCC1)C(=O)O)[C@@H]1CCCN(CCCc2ccc3c(n2)NCCC3)C1` [Compound 264, (S)-2-((1R,2R)-2-(pyrrolidine-1-carbonyl)cyclohexane-1-carboxamido)-3-((R)-1-(3-(5,6,7,8-tetrahydro-1,8-naphthyridin-2-yl)propyl)piperidine-3-carboxamido)propanoic acid], the concentration for half-maximal inhibition (IC50) against αvβ1 and against αvβ6 was less than 100 nM each time.
With `CC(C)(C)OC(=O)N[C@@H](CNC(=O)[C@@H]1CCCN(CCCc2ccc3c(n2)NCCC3)C1)C(=O)O` [Compound 265, (S)-2-((tert-butoxycarbonyl)amino)-3-((R)-1-(3-(5,6,7,8-tetrahydro-1,8-naphthyridin-2-yl)propyl)piperidine-3-carboxamido)propanoic acid], the IC50 against αvβ1 and against αvβ6 was less than 100 nM in each case.
With `CNC(=O)c1cccc(CNC(=O)[C@@H]2CCCC[C@H]2C(=O)N[C@@H](CNC(=O)[C@@H]2CCCN(CCCc3ccc4c(n3)NCCC4)C2)C(=O)O)c1` [Compound 266, (S)-2-((1R,2R)-2-((3-(methylcarbamoyl)benzyl)carbamoyl)cyclohexane-1-carboxamido)-3-((R)-1-(3-(5,6,7,8-tetrahydro-1,8-naphthyridin-2-yl)propyl)piperidine-3-carboxamido)propanoic acid], the half-maximal inhibitory concentration (IC50) against αvβ1 and against αvβ6 was less than 100 nM in each case.
Take `CN1CCc2ccc(S(=O)(=O)N3CCC[C@@H](C(=O)N[C@@H](CNC(=O)[C@@H]4CCCN(CCCc5ccc6c(n5)NCCC6)C4)C(=O)O)C3)cc21` [Compound 267, (S)-2-((R)-1-((1-methylindolin-6-yl)sulfonyl)piperidine-3-carboxamido)-3-((R)-1-(3-(5,6,7,8-tetrahydro-1,8-naphthyridin-2-yl)propyl)piperidine-3-carboxamido)propanoic acid]: the IC50 against αvβ1 and on αvβ6 was less than 100 nM in each case.
